Measured values from ChEMBL document CHEMBL1201862, “PubChem BioAssay data set” (2004).
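Grown in 96-well plates, cells were treated for 48 hours with each compound at five concentrations. Insufficient inhibition: endpoint recorded as highest concentration tested. The concentration for 50% growth inhibition is given as GI50.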 The source made the active and inactive calls. No stated cut-off is given here; in the data, active = GI50 up to about 1.1 µM and inactive = higher.

Experiments:
Experiment in all cases: inhibition of tumour cell growth, NCI panel, 48 h
CAKI-1 = test system: CAKI-1
MOLT-4 = test system: MOLT-4
NCI-H460 = test system: NCI-H460
SNB-19 = test system: SNB-19
786-0 = test system: 786-0
TK-10 = test system: TK-10
NCI/ADR-RES = test system: NCI/ADR-RES
Hs-578T = test system: Hs-578T
SF-295 = test system: SF-295
T47D = test system: T47D
SK-OV-3 = test system: SK-OV-3
SW-620 = test system: SW-620
HOP-92 = test system: HOP-92
NCI-H23 = test system: NCI-H23
COLO 205 = test system: COLO 205
U-251 = test system: U-251
EKVX = test system: EKVX
UACC-257 = test system: UACC-257
A498 = test system: A498
MDA-N = test system: MDA-N
SN12C = test system: SN12C
HT-29 = test system: HT-29
KM12 = test system: KM12
MDA-MB-231 = test system: MDA-MB-231
OVCAR-8 = test system: OVCAR-8
LOX IMVI = test system: LOX IMVI
MCF7 = test system: MCF7
MDA-MB-435 = test system: MDA-MB-435
OVCAR-5 = test system: OVCAR-5
HCT-116 = test system: HCT-116
M14 = test system: M14
RPMI-8226 = test system: RPMI-8226
SF-539 = test system: SF-539
SF-268 = test system: SF-268
HCT-15 = test system: HCT-15
SR = test system: SR
CCRF-CEM = test system: CCRF-CEM
PC-3 = test system: PC-3
HL-60 = test system: HL-60
A549 = test system: A549
DU-145 = test system: DU-145
Malme-3M = test system: Malme-3M
SK-MEL-28 = test system: SK-MEL-28
OVCAR-3 = test system: OVCAR-3
ACHN = test system: ACHN
HCC 2998 = test system: HCC 2998
SNB-75 = test system: SNB-75
SK-MEL-5 = test system: SK-MEL-5
HOP-62 = test system: HOP-62
SK-MEL-2 = test system: SK-MEL-2
IGROV-1 = test system: IGROV-1
NCI-H522 = test system: NCI-H522
UACC-62 = test system: UACC-62
OVCAR-4 = test system: OVCAR-4

How did the GI50 (CAKI-1) turn out when `Cc1oc2c(cc(O)c3ccccc32)c2cccc1-2` was run?
Its GI50 is > 100 µM (inactive).

And the GI50 (MOLT-4)?
The GI50 was > 100 µM (inactive).

What about the GI50 (NCI-H460) of the same compound?
Its GI50 is > 100 µM (inactive).

And the GI50 (SNB-19)?
Its GI50 is > 100 µM (inactive).

What about the GI50 (786-0) of the same compound?
The GI50 was > 100 µM (inactive).

What about the GI50 (TK-10) of the same compound?
The GI50 was > 100 µM (inactive).

And the GI50 (NCI/ADR-RES)?
The GI50 was > 100 µM (inactive).

And the GI50 (Hs-578T)?
The GI50 was > 100 µM (inactive).

What about the GI50 (SF-295) of the same compound?
Its GI50 is > 100 µM (inactive).

What about the GI50 (T47D) of the same compound?
The GI50 was > 100 µM (inactive).

What about the GI50 (SK-OV-3) of the same compound?
The GI50 was > 100 µM (inactive).

And the GI50 (SW-620)?
The GI50 was > 100 µM (inactive).

What about the GI50 (HOP-92) of the same compound?
Its GI50 is > 100 µM (inactive).

What about the GI50 (NCI-H23) of the same compound?
The GI50 was > 100 µM (inactive).

What about the GI50 (COLO 205) of the same compound?
The GI50 was > 100 µM (inactive).

What about the GI50 (U-251) of the same compound?
The GI50 was > 100 µM (inactive).

What about the GI50 (EKVX) of the same compound?
Its GI50 is > 100 µM (inactive).

What about the GI50 (UACC-257) of the same compound?
The GI50 was > 100 µM (inactive).

What about the GI50 (A498) of the same compound?
Its GI50 is > 100 µM (inactive).

What about the GI50 (MDA-N) of the same compound?
Its GI50 is > 100 µM (inactive).

What about the GI50 (SN12C) of the same compound?
Its GI50 is > 100 µM (inactive).

And the GI50 (HT-29)?
The GI50 was > 100 µM (inactive).

And the GI50 (KM12)?
Its GI50 is > 100 µM (inactive).

And the GI50 (MDA-MB-231)?
The GI50 was 14.3 µM (inactive).

What about the GI50 (OVCAR-8) of the same compound?
Its GI50 is > 100 µM (inactive).

And the GI50 (LOX IMVI)?
The GI50 was > 100 µM (inactive).

And the GI50 (MCF7)?
Its GI50 is > 100 µM (inactive).

And the GI50 (MDA-MB-435)?
The GI50 was > 100 µM (inactive).

And the GI50 (OVCAR-5)?
The GI50 was > 100 µM (inactive).

And the GI50 (HCT-116)?
Its GI50 is > 100 µM (inactive).

What about the GI50 (M14) of the same compound?
Its GI50 is 24.1 µM (inactive).

And the GI50 (RPMI-8226)?
Its GI50 is > 100 µM (inactive).

And the GI50 (SF-539)?
Its GI50 is > 100 µM (inactive).

And the GI50 (SF-268)?
Its GI50 is > 100 µM (inactive).

And the GI50 (HCT-15)?
The GI50 was 99.5 µM.

What about the GI50 (SR) of the same compound?
The GI50 was > 100 µM (inactive).

What about the GI50 (CCRF-CEM) of the same compound?
Its GI50 is > 100 µM (inactive).

And the GI50 (PC-3)?
Its GI50 is > 100 µM (inactive).

What about the GI50 (HL-60) of the same compound?
Its GI50 is 96.6 µM (inactive).

And the GI50 (A549)?
The GI50 was > 100 µM (inactive).

What about the GI50 (DU-145) of the same compound?
The GI50 was 36.1 µM (inactive).

And the GI50 (Malme-3M)?
Its GI50 is > 100 µM (inactive).

What about the GI50 (SK-MEL-28) of the same compound?
Its GI50 is > 100 µM (inactive).

What about the GI50 (OVCAR-3) of the same compound?
The GI50 was > 100 µM (inactive).

What about the GI50 (ACHN) of the same compound?
Its GI50 is > 100 µM (inactive).

What about the GI50 (HCC 2998) of the same compound?
The GI50 was > 100 µM (inactive).

And the GI50 (SNB-75)?
The GI50 was > 100 µM (inactive).

And the GI50 (SK-MEL-5)?
The GI50 was > 100 µM (inactive).

What about the GI50 (HOP-62) of the same compound?
The GI50 was > 100 µM (inactive).

Which results are given for `CC1(C)OC2C(COC(c3ccccc3)(c3ccccc3)c3ccccc3)OC(c3c[nH]c4c(N)ncnc34)C2O1` (configuration not stated)?
GI50 (MOLT-4): 1.89 µM (inactive); GI50 (NCI-H460): 3.33 µM (inactive); GI50 (786-0): 1.87 µM (inactive); GI50 (NCI/ADR-RES): 9.48 µM (inactive); GI50 (Hs-578T): 5.73 µM (inactive); GI50 (SF-295): 3 µM (inactive); GI50 (T47D): 3.92 µM (inactive); GI50 (SK-OV-3): 4.86 µM (inactive); GI50 (SW-620): 3.25 µM (inactive); GI50 (HOP-92): 5.62 µM (inactive); GI50 (SK-MEL-2): 4.89 µM (inactive); GI50 (COLO 205): 10.7 µM (inactive); GI50 (EKVX): 8.61 µM (inactive); GI50 (UACC-257): 4.68 µM (inactive); GI50 (MDA-N): 3.16 µM (inactive); GI50 (SN12C): 3.92 µM (inactive); GI50 (HT-29): 2.56 µM (inactive); GI50 (MDA-MB-231): 13.1 µM (inactive); GI50 (IGROV-1): 4.49 µM (inactive); GI50 (OVCAR-8): 5.77 µM (inactive); GI50 (LOX IMVI): 1.6 µM (inactive); GI50 (HCT-116): 4.67 µM (inactive); GI50 (M14): 2.76 µM (inactive); GI50 (NCI-H522): 4.53 µM (inactive); GI50 (UACC-62): 1.31 µM (inactive); GI50 (SF-268): 5.82 µM (inactive); GI50 (HCT-15): 4.06 µM; GI50 (OVCAR-4): 7.78 µM (inactive); GI50 (SR): 4.06 µM (inactive); GI50 (PC-3): 1.86 µM (inactive); GI50 (A549): 3.18 µM (inactive); GI50 (DU-145): 5.6 µM (inactive); GI50 (Malme-3M): 4.92 µM (inactive); GI50 (OVCAR-3): 3.13 µM (inactive); GI50 (ACHN): 2.67 µM (inactive); GI50 (SNB-75): 7.48 µM (inactive); GI50 (SK-MEL-5): 1.58 µM (inactive); GI50 (HOP-62): 4.86 µM (inactive)
